In PubChem BioAssay (NCI) one finds TGI and GI50 data, which are given here for 14 compounds.

Test systems include 786-0 renal; A498 renal; HS 578T breast; HT29 colon; MCF7 breast; MOLT-4 leukemia; SF-539 CNS; SK-OV-3 ovarian; SR leukemia; T-47D breast.
What all share (assay): NCI anticancer screen, dose series, 48 h

Structures are written as SMILES.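 Results reflect a 48-hour exposure of cells in 96-well plates to compound at five concentrations. Abbreviation: GI50, concentration required for 50% inhibition of growth. TGI marks complete inhibition of growth.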

Consider `N#Cc1cc2c(cc1Cl)Sc1nccn1S2(=O)=O`, for which the TGI in the assay with 786-0 renal was 28.8 µM; in the assay on A498 renal, 33 µM; in the assay on HS 578T breast, 8.37 µM; in the assay on HT29 colon it was 3.91 µM; in the assay with MCF7 breast, above 23.4 µM; in the assay on MOLT-4 leukemia, 2.54 µM. Also, the TGI with SF-539 CNS was 12.2 µM; in the assay with SK-OV-3 ovarian it was 18.1 µM; in the assay on SR leukemia, 3.54 µM; in the assay with T-47D breast it was 8.57 µM.
Take `CCOc1cc(-c2nc3ccccn3c2/N=C/c2cc(Br)ccc2O)ccc1O`: the TGI in the assay with 786-0 renal was 60.4 µM; in the assay on A498 renal it was 90.5 µM; with HS 578T breast, above 100 µM; in the assay with HT29 colon, above 100 µM; in the assay on MCF7 breast, 43.6 µM; in the assay on MOLT-4 leukemia it was above 100 µM. Moreover, the TGI is above 100 µM with SF-539 CNS, 92.7 µM with SK-OV-3 ovarian, above 100 µM in the assay with SR leukemia and 22.4 µM with T-47D breast.
For the compound `N#Cc1c(-c2ccc(F)cc2)nc(N/N=C/c2c[nH]c3ccccc23)nc1N1CCOCC1`, the GI50 in the assay with A498 renal is 1.33 µM; in the assay on HS 578T breast, 3.62 µM; in the assay with HT29 colon it was 1.11 µM; with MCF7 breast, 4.56 µM; in the assay with MOLT-4 leukemia, 1.6 µM; in the assay with SF-539 CNS, 3.68 µM. Besides, the GI50 in the assay on SK-OV-3 ovarian is 8.61 µM; in the assay with SR leukemia, 0.215 µM; in the assay with T-47D breast, 9.16 µM. Further, the TGI came out at 11.5 µM in the assay on A498 renal; 32.5 µM in the assay on HS 578T breast; 22.6 µM in the assay on HT29 colon; 57.4 µM in the assay with MCF7 breast; 9.63 µM with MOLT-4 leukemia; 23 µM in the assay with SF-539 CNS. The TGI was determined as 38.9 µM with SK-OV-3 ovarian, 24 µM with SR leukemia and 40 µM in the assay on T-47D breast.
On to `NC(=O)C(=CNC(=S)c1ccncc1)C(N)=O`, for which the TGI in the assay with 786-0 renal, in the assay on HS 578T breast, in the assay on HT29 colon, in the assay on MCF7 breast, in the assay on MOLT-4 leukemia and with SF-539 CNS was above 100 µM in each case. Also, the TGI with SK-OV-3 ovarian, in the assay on SR leukemia and in the assay with T-47D breast was above 100 µM each time.
Consider `Brc1ccc2c(-c3csc(-c4c[nH]c5cc(Br)ccc45)n3)c[nH]c2c1`, for which the TGI with 786-0 renal was above 67.3 µM; in the assay with A498 renal it was above 83.5 µM; in the assay on HS 578T breast, 87.1 µM; in the assay on HT29 colon it was 29.2 µM; in the assay with MCF7 breast, above 100 µM; in the assay on MOLT-4 leukemia, above 62.8 µM. Besides, the TGI in the assay with SF-539 CNS is 63.2 µM; in the assay on SK-OV-3 ovarian it was 97.4 µM; in the assay on SR leukemia, above 41 µM; in the assay with T-47D breast it was 98.7 µM.
On to `Brc1cc2nn(-c3ccccc3)nc2c2nonc12`, for which the TGI in the assay with 786-0 renal, with HS 578T breast, in the assay on HT29 colon, with MCF7 breast, with MOLT-4 leukemia and with SF-539 CNS was above 100 µM in each case. Besides, the TGI in the assay on SK-OV-3 ovarian, in the assay with SR leukemia and with T-47D breast was above 100 µM in each case.
For `O=c1c2ccccc2nc(Nc2cccc(Cl)c2)n1/N=C/C=C/c1ccccc1`, the TGI is above 100 µM with 786-0 renal; above 100 µM with HS 578T breast; above 100 µM with HT29 colon; 74.7 µM with MCF7 breast; above 100 µM in the assay on MOLT-4 leukemia; above 100 µM in the assay with SF-539 CNS. In addition, the TGI with SK-OV-3 ovarian, with SR leukemia and in the assay on T-47D breast was above 100 µM each time.
With `O=C(Cc1ccc([N+](=O)[O-])cc1)OCC#CCOC(=O)Cc1ccc([N+](=O)[O-])cc1`, the TGI with 786-0 renal, with HS 578T breast, with HT29 colon, with MCF7 breast, in the assay on MOLT-4 leukemia and in the assay with SF-539 CNS was above 10 µM in each case. The TGI in the assay with SK-OV-3 ovarian, in the assay with SR leukemia and with T-47D breast was above 10 µM each time.
Consider `O=c1oc2cc(O)ccc2c(O)c1C(c1ccc(C(c2c(O)c3ccc(O)cc3oc2=O)c2c(O)c3ccc(O)cc3oc2=O)cc1)c1c(O)c2ccc(O)cc2oc1=O`, for which the TGI in the assay on A498 renal, with HS 578T breast, in the assay with HT29 colon, with MCF7 breast, with MOLT-4 leukemia and in the assay with SF-539 CNS was above 100 µM throughout. The TGI in the assay with SK-OV-3 ovarian, in the assay on SR leukemia and in the assay on T-47D breast was above 100 µM in each case.
For `COc1ccc(-c2c(C#N)c(N)nc3c2CCS(=O)(=O)c2ccccc2-3)cc1`, the TGI in the assay with 786-0 renal, with A498 renal, with HS 578T breast, with HT29 colon, in the assay with SR leukemia and in the assay on T-47D breast was above 100 µM each time.
For the compound `O=C(Cc1ccccc1)NN1C(=O)/C(=C\c2ccc([N+](=O)[O-])cc2)SC1=Nc1ccccc1`, the TGI in the assay with 786-0 renal, with A498 renal, with HS 578T breast, in the assay on HT29 colon, with MCF7 breast and in the assay with MOLT-4 leukemia was above 100 µM throughout. Also, the TGI with SF-539 CNS, with SK-OV-3 ovarian and in the assay on T-47D breast was above 100 µM each time.
Turning to `CCN1CCC(O)(C(C(=O)O)c2ccccc2)CC1` (stereo not drawn), the TGI in the assay on A498 renal, in the assay with HS 578T breast, with HT29 colon, with MCF7 breast, in the assay with SK-OV-3 ovarian and in the assay on SR leukemia was above 100 µM each time. This compound registered a TGI in the assay with T-47D breast above 100 µM.
On to `COc1cc(/C=C\C(=O)O)ccc1OCc1ccccc1`, for which the TGI in the assay with 786-0 renal, in the assay with A498 renal, in the assay on HS 578T breast, in the assay on MCF7 breast, in the assay with MOLT-4 leukemia and with SF-539 CNS was above 100 µM in each case. Besides, the TGI in the assay on SK-OV-3 ovarian, in the assay with SR leukemia and with T-47D breast was above 100 µM in each case.
For the compound `O=c1c(-c2ccc(Cl)cc2)nnc2n(Cc3ccccc3)c3ccccc3n12`, the TGI in the assay with 786-0 renal was 42.8 µM; in the assay on A498 renal, 69.5 µM; with HS 578T breast it was above 100 µM; in the assay on HT29 colon, above 100 µM; with MCF7 breast it was above 100 µM; with MOLT-4 leukemia, above 100 µM. The TGI is 37.9 µM in the assay on SF-539 CNS, above 100 µM with SR leukemia and above 100 µM in the assay with T-47D breast.
